# Molecular target: Bromodomain-containing protein 4 (Homo sapiens, UniProt O60885)
# Experiment: Inhibition of biotinylated-H4KAc4 binding to human His6-tagged BRD4 bromodomain-1 (N44 to E168 residues) expressed in Escherichia coli BL21(DE3) at 50 uM after 2.5 hrs by luminescence-based AlphaScreen assay relative to control
# Conditions: not given
row,Structure (SMILES),inhibition [%]
1,CC(=O)n1ncc2c([N+](=O)[O-])cc([N+](=O)[O-])cc21,98
2,Cn1nc(-c2ccc(Cl)cc2)c2ccccc2c1=O,57
3,CC(=O)c1coc2c1cc(O)c1ccccc12,51
4,CC(=O)c1cn(CCC(=O)O)c2ccccc12,34
5,Nc1c(Nc2ccccc2)c2ccccc2oc1=O,8
6,Nc1c(N2CCCC2)c2ccccc2oc1=O,47
7,CC(=O)n1c(C#N)nc2ccccc21,20
8,O=C1N=CC(c2cccc([N+](=O)[O-])c2)c2ccccc21 (configuration not stated),23
9,CC(=O)c1nn(-c2ccccc2)c2c1CCCC2,-2
10,CC(=O)c1nn(-c2ccccc2)cc1C(=O)c1ccccc1,27
11,CC(=O)Nc1ccc2c(c1)c1ccccc1n2C(C)=O,-3
12,CC(=O)c1nn(-c2ccccc2)c(C)c1C(C)=O,5
13,CC(=O)OCc1cn(C(C)=O)c2ccccc12,17

# Test system: LNCaP
# Experiment: Antiproliferative activity against human LNCAP cells after 72 hrs by Cell-Titer Glo assay
# Format: functional, cell-based
# Conditions: Homo sapiens, LNCaP, 72 h; read-out: IC50
row,Structure (SMILES),IC50 [µM]
1,CNC(=O)c1ccc(N2C(=S)N(c3ccc(C#N)c(C(F)(F)F)c3)C(=O)C2(C)C)cc1F [ENZALUTAMIDE],33.8

# Molecular target: Bromodomain adjacent to zinc finger domain protein 2B (Homo sapiens, UniProt Q9UIF8)
# Experiment: Inhibition of biotinylated-H4KAc4 binding to human His6-tagged BAZ2B (S1858 to S1972 residues) expressed in Escherichia coli BL21(DE3) at 50 uM after 2.5 hrs by luminescence-based AlphaScreen assay relative to control
# Conditions: not given
# Chain of Bromodomain adjacent to zinc finger domain protein 2B (Q9UIF8 whole entry, the tested form may be a part): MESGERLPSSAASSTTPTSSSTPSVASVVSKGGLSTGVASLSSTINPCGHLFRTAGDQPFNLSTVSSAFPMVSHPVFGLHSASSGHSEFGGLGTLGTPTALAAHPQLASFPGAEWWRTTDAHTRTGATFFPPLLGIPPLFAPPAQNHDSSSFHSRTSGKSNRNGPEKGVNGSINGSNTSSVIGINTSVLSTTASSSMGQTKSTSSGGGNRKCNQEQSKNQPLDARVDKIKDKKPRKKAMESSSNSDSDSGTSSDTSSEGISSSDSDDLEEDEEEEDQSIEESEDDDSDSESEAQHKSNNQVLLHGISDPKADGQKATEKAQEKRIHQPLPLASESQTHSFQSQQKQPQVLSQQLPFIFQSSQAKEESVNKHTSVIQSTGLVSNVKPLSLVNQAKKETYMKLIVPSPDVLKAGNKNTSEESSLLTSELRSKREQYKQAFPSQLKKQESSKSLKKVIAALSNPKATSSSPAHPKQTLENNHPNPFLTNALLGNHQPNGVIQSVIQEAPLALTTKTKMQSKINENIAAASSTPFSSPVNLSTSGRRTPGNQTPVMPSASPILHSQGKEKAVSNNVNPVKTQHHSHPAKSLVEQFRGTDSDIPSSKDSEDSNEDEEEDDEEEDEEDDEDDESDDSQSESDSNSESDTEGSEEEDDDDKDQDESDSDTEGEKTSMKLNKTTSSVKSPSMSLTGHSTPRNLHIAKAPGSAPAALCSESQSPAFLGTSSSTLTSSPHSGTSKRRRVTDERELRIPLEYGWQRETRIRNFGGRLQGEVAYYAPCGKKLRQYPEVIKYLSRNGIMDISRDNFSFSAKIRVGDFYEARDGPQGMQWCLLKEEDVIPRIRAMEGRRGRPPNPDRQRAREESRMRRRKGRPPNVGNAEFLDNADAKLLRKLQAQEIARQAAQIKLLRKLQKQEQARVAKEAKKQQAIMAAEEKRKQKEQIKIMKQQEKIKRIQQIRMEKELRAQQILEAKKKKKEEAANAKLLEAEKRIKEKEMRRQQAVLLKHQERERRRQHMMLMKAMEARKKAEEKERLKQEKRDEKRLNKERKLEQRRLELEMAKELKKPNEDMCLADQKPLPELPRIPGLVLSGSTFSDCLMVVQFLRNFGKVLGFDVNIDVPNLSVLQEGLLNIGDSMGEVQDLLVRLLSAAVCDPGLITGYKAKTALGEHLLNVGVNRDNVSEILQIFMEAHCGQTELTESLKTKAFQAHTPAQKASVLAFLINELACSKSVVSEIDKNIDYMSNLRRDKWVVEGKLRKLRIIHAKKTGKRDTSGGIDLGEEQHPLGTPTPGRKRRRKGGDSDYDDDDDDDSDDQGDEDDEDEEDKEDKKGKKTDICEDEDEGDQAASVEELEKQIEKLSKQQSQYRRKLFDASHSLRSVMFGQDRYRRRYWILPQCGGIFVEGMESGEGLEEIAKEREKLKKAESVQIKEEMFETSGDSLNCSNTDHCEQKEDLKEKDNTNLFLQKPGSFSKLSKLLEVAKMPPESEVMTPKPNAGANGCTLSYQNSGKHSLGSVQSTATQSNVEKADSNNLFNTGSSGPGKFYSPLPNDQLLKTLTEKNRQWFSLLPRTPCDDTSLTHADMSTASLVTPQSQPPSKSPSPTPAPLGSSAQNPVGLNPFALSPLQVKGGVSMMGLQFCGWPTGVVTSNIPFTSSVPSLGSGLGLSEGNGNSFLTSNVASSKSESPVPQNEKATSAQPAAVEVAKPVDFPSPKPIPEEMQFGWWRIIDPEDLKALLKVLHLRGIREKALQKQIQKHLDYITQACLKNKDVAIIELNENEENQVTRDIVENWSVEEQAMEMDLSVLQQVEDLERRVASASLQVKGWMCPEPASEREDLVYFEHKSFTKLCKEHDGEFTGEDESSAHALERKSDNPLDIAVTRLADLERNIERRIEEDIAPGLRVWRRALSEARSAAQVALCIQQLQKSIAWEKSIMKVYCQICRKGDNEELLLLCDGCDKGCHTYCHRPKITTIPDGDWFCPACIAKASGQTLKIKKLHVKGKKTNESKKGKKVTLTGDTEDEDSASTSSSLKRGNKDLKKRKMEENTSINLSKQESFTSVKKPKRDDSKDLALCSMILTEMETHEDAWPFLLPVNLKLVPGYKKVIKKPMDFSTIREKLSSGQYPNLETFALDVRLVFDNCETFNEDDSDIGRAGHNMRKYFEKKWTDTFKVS
row,Structure (SMILES),inhibition [%]
1,CC(=O)n1ncc2c([N+](=O)[O-])cc([N+](=O)[O-])cc21,97
2,Cn1nc(-c2ccc(Cl)cc2)c2ccccc2c1=O,34
3,CC(=O)c1coc2c1cc(O)c1ccccc12,36
4,CC(=O)c1cn(CCC(=O)O)c2ccccc12,21
5,Nc1c(Nc2ccccc2)c2ccccc2oc1=O,32
6,Nc1c(N2CCCC2)c2ccccc2oc1=O,69
7,CC(=O)n1c(C#N)nc2ccccc21,24
8,O=C1N=CC(c2cccc([N+](=O)[O-])c2)c2ccccc21 (configuration not stated),59
9,CC(=O)c1nn(-c2ccccc2)cc1C(=O)c1ccccc1,21
10,CC(=O)Nc1ccc2c(c1)c1ccccc1n2C(C)=O,10
11,CC(=O)c1nn(-c2ccccc2)c(C)c1C(C)=O,6
12,CC(=O)OCc1cn(C(C)=O)c2ccccc12,10

# Molecular target: CREB-binding protein (Homo sapiens, UniProt Q92793)
# Experiment: Inhibition of biotinylated-H4KAc4 binding to human His6-tagged CBP (R1081 to G1197 residues) expressed in Escherichia coli BL21(DE3) after 2.5 hrs by luminescence-based AlphaScreen assay
# Conditions: not given
# Chain of CREB-binding protein (Q92793 whole entry, the tested form may be a part): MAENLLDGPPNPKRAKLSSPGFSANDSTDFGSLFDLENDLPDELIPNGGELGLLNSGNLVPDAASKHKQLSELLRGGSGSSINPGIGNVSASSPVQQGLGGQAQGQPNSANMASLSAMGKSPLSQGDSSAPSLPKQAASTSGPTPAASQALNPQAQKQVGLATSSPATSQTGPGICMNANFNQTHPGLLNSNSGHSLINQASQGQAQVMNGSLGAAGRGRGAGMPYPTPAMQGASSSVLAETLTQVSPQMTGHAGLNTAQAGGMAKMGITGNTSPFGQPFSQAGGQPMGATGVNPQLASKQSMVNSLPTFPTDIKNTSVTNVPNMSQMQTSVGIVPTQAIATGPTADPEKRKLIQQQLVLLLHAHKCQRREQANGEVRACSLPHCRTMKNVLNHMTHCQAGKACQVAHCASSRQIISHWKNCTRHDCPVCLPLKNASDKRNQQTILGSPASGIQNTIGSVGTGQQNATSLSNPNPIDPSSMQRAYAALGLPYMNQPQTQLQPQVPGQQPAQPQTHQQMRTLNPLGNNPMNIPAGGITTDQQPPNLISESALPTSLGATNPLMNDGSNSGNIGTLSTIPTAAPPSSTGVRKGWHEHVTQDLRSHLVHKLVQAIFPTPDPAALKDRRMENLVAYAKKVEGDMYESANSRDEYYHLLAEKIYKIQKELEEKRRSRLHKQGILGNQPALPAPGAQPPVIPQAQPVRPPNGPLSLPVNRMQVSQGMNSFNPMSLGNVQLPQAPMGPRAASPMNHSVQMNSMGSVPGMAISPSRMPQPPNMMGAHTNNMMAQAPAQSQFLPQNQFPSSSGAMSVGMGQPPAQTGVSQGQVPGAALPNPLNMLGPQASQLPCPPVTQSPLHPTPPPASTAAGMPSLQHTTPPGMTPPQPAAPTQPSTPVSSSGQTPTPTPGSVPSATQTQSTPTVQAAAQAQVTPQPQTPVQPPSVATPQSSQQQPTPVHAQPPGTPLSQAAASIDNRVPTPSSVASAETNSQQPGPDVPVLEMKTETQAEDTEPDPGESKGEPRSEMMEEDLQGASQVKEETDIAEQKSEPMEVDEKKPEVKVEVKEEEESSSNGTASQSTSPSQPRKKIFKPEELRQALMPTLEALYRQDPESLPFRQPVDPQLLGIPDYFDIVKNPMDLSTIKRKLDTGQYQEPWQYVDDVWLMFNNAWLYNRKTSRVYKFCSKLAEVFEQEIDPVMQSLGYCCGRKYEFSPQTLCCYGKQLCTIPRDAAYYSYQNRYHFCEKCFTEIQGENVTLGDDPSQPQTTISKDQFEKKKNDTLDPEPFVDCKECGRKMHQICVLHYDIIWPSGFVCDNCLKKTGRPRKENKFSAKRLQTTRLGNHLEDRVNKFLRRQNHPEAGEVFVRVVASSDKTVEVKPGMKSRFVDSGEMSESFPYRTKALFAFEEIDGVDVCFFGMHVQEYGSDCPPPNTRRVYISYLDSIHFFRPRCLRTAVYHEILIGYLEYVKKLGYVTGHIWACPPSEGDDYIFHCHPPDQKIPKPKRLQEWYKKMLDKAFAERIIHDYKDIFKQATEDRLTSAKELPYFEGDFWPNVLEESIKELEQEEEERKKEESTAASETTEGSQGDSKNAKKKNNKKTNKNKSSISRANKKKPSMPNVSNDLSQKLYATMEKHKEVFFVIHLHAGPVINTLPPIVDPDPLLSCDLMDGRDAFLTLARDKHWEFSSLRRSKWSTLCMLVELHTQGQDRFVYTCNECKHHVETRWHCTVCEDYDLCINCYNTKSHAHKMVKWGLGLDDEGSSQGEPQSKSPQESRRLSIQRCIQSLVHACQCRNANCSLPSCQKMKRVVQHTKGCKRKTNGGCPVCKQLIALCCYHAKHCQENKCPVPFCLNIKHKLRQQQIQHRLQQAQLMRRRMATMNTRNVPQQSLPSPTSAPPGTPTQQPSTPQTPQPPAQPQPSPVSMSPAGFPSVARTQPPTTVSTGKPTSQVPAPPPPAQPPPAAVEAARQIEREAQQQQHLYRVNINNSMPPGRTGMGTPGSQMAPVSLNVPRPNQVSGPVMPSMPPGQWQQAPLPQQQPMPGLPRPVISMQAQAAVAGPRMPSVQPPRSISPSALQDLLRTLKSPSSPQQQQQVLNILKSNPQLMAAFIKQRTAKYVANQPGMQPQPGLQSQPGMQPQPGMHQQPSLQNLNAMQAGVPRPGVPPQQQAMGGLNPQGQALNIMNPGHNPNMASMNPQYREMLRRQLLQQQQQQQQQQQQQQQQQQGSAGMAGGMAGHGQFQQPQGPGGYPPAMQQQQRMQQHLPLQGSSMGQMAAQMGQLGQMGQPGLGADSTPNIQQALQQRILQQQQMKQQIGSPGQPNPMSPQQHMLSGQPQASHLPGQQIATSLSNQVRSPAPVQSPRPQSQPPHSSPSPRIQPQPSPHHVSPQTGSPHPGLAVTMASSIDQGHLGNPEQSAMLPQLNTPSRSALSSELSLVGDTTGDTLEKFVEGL
row,Structure (SMILES),IC50 [µM]
1,CC(=O)n1cc(C(=O)Nc2cc(C(=O)O)cc(-c3ccccc3)c2)c2ccccc21,1.86
2,CC(=O)n1cc(C(=O)Nc2cc(C(=O)O)ccc2NC2CCOCC2)c2ccccc21,8.5
3,CC(=O)n1cc(C(=O)Nc2cc(C(=O)O)ccc2NC2CCCCCC2)c2ccccc21,1.67
4,CC(=O)n1cc(C(=O)Nc2cc(C(=O)O)ccc2NCC(C)C)c2ccccc21,2.33
5,CC(=O)n1cc(C(=O)Nc2cc(CC(C)C)cc(C(=O)O)c2)c2ccccc21,3.39
6,CC(=O)n1cc(C(=O)Nc2cc(C(=O)O)ccc2NCC2CC2)c2ccccc21,21.6
7,CC(=O)n1cc(C(=O)Nc2cc(C(=O)O)cc(C3CCCCC3)c2)c2ccccc21,2.48
8,CC(=O)n1cc(C(=O)Nc2cc(Br)cc(C(=O)O)c2)c2ccccc21,4.7
9,CCCCNc1ccc(C(=O)O)cc1NC(=O)c1cn(C(C)=O)c2ccccc12,> 50
10,CC(=O)n1cc(C(=O)Nc2cc(C(=O)O)cc(-c3cncc(C)c3)c2)c2ccccc21,1.69
11,CC(=O)n1ncc2c([N+](=O)[O-])cc([N+](=O)[O-])cc21,9.11
12,Cn1nc(-c2ccc(Cl)cc2)c2ccccc2c1=O,> 50
13,CC(=O)n1cc(C(=O)Nc2cc(C(=O)O)cc(-c3cccc(F)c3)c2)c2ccccc21,3.52
14,COc1ccc2c(c1)c(C(=O)Nc1cc(C(=O)O)cc(-c3ccc4c(cnn4C)c3)c1)cn2C(C)=O,0.29
15,CC(=O)n1cc(C(=O)Nc2cc(CCc3ccccc3)cc(C(=O)O)c2)c2ccccc21,1.96
16,COc1cccc(-c2cc(NC(=O)c3cn(C(C)=O)c4ccccc34)cc(C(=O)O)c2)c1,2.07
17,CC(=O)n1cc(C(=O)Nc2cc(C(=O)O)ccc2NC2CC2)c2ccccc21,4.84
18,COc1ccc2c(c1)c(C(=O)Nc1cc(C(=O)O)cc(-c3ccc4c(c3)OCCO4)c1)cn2C(C)=O,0.69
19,CC(=O)n1cc(C(=O)NCCN2CCNC2=O)c2ccccc21,32.6
20,CC(=O)c1coc2c1cc(O)c1ccccc12,41.4
21,CC(=O)n1cc(C(=O)Nc2cc(C(=O)O)ccc2NC2CCCC2)c2ccccc21,1.89
22,CC(=O)c1cn(CCC(=O)O)c2ccccc12,16.7
23,Nc1c(Nc2ccccc2)c2ccccc2oc1=O,> 50
24,Nc1c(N2CCCC2)c2ccccc2oc1=O,> 50
25,CC(=O)n1cc(C(=O)Nc2cc(C(=O)O)ccc2NCC2CCCCC2)c2ccccc21,2.33
26,CC(=O)n1cc(C(=O)Nc2cc(C(=O)O)cc(C3CC3)c2)c2ccccc21,2.74
27,CC(=O)n1c(C#N)nc2ccccc21,> 50

row,Structure (SMILES),IC50 [µM]
1,O=C1N=CC(c2cccc([N+](=O)[O-])c2)c2ccccc21 (configuration not stated),> 50
2,COC(=O)[C@H]1CCCN(C(=O)Cn2cc(C(C)=O)c3ccccc32)C1,7.09
3,CC(=O)c1cn(CC(=O)N2CCC(C(=O)O)CC2)c2ccccc12,13.6
4,CC(=O)n1cc(C(=O)Nc2cc(C(=O)O)cc(C3CCCC3)c2)c2ccccc21,2.99
5,CCc1cc(NC(=O)c2cn(C(C)=O)c3ccccc23)cc(C(=O)O)c1,2.8
6,CC(=O)n1cc(C(=O)Nc2cc(C(=O)O)cc(-c3cccc(C(F)(F)F)c3)c2)c2ccccc21,4.05
7,CC(=O)c1nn(-c2ccccc2)c2c1CCCC2,> 50
8,CC(=O)c1nn(-c2ccccc2)cc1C(=O)c1ccccc1,> 50
9,CC(=O)n1cc(C(=O)Nc2cc(C(=O)O)cc(-c3ccco3)c2)c2cc(O)ccc21,0.17
10,CC(=O)NCCNC(=O)c1cn(C(C)=O)c2ccccc12,33.8
11,CC(=O)Nc1ccc2c(c1)c1ccccc1n2C(C)=O,> 50
12,CCOc1ccc2c(c1)c(C(=O)Nc1cc(C(=O)O)cc(-c3ccco3)c1)cn2C(C)=O,3.89
13,CC(=O)n1cc(C(=O)Nc2cc(C(=O)O)ccc2NCC2CCOCC2)c2ccccc21,6.36
14,CC(=O)n1cc(C(=O)Nc2cc(C(=O)O)cc(-c3ccc4c(cnn4C)c3)c2)c2ccccc21,1
15,CC(=O)c1cccc(NC(=O)c2cn(C(C)=O)c3ccccc23)c1,25.4
16,CC(=O)c1nn(-c2ccccc2)c(C)c1C(C)=O,> 50
17,CCCNc1ccc(C(=O)O)cc1NC(=O)c1cn(C(C)=O)c2ccccc12,6.56
18,CC(=O)OCc1cn(C(C)=O)c2ccccc12,> 50
19,COC(=O)C1CCN(C(=O)Cn2cc(C(C)=O)c3ccccc32)CC1,19.8
20,CC(=O)n1cc(C(=O)Nc2cc(C(=O)O)cc(-c3cccc(Cl)c3)c2)c2ccccc21,1.44
21,CC(=O)n1cc(C(=O)Nc2cc(C(=O)O)ccc2NCc2ccccc2)c2ccccc21,4.11
22,CC(=O)n1cc(C(=O)Nc2cc(C(=O)O)cc(-c3cc4ccccc4o3)c2)c2ccccc21,2.81
23,CCCOc1ccc2c(c1)c(C(=O)Nc1cc(C(=O)O)cc(-c3ccco3)c1)cn2C(C)=O,26.2
24,CCOC(=O)CCn1cc(C(C)=O)c2ccccc21,39.6
25,CC(=O)c1cn(CC(=O)N2CCC[C@H](C(=O)O)C2)c2ccccc12,6.8
26,COC(=O)c1cccc(NC(=O)c2cn(C(C)=O)c3ccccc23)c1,3.39

# Molecular target: T1, ATPase family AAA domain-containing protein 2 (Homo sapiens) (UniProt Q6PL18)
# T1 sequence (whole entry): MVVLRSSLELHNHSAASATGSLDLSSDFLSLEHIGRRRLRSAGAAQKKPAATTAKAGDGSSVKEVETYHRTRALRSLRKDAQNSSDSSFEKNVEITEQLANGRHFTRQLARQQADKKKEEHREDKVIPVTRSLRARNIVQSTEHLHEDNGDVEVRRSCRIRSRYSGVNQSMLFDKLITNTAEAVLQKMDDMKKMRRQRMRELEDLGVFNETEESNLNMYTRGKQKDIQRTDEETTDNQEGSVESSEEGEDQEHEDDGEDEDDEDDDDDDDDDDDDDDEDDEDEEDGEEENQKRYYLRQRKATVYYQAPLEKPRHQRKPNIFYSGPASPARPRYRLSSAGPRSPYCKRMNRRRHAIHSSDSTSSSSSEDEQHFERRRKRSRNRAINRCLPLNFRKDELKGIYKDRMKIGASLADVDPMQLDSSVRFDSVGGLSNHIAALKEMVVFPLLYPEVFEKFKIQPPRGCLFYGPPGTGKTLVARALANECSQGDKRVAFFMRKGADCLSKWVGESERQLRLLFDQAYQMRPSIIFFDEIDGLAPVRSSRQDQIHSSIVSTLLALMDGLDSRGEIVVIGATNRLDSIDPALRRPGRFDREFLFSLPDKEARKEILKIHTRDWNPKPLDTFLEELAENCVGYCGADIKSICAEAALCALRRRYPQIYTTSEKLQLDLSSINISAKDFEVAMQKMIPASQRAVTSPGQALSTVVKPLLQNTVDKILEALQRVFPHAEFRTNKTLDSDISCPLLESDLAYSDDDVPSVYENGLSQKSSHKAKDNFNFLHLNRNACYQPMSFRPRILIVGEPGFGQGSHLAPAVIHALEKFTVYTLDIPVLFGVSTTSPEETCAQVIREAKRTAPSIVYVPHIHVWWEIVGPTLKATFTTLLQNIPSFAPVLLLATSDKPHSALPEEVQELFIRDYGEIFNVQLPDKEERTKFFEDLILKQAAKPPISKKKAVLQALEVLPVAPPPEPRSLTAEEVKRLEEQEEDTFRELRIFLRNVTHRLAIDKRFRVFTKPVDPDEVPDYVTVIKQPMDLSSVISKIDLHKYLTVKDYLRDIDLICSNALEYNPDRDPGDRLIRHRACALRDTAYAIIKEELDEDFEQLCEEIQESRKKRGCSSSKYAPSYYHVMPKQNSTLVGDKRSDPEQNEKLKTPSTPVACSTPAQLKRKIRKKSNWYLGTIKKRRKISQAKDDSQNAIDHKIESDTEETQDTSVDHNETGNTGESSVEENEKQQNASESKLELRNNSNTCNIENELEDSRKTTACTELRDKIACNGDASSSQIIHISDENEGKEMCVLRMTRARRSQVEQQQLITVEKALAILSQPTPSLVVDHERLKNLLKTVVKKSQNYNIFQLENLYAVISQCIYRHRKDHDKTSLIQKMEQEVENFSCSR
# Experiment: Inhibition of biotinylated-H4KAc4 binding to human His6-tagged ATAD2 expressed in Escherichia coli BL21(DE3) at 50 uM after 2.5 hrs by luminescence-based AlphaScreen assay relative to control
# Conditions: not given
row,Structure (SMILES),inhibition [%]
1,CC(=O)n1ncc2c([N+](=O)[O-])cc([N+](=O)[O-])cc21,98
2,Cn1nc(-c2ccc(Cl)cc2)c2ccccc2c1=O,49
3,CC(=O)c1coc2c1cc(O)c1ccccc12,55
4,CC(=O)c1cn(CCC(=O)O)c2ccccc12,39
5,Nc1c(Nc2ccccc2)c2ccccc2oc1=O,32
6,Nc1c(N2CCCC2)c2ccccc2oc1=O,52
7,CC(=O)n1c(C#N)nc2ccccc21,29
8,O=C1N=CC(c2cccc([N+](=O)[O-])c2)c2ccccc21 (configuration not stated),87
9,CC(=O)c1nn(-c2ccccc2)c2c1CCCC2,6
10,CC(=O)c1nn(-c2ccccc2)cc1C(=O)c1ccccc1,35
11,CC(=O)Nc1ccc2c(c1)c1ccccc1n2C(C)=O,4
12,CC(=O)c1nn(-c2ccccc2)c(C)c1C(C)=O,19
13,CC(=O)OCc1cn(C(C)=O)c2ccccc12,32

# Source: ChEMBL document CHEMBL4145544, “Discovery and optimization of 1-(1H-indol-1-yl)ethanone derivatives as CBP/EP300 bromodomain inhibitors for the treatment of castration-resistant prostate cancer” (Eur J Med Chem, 2018)
